Here are results for two compounds from patent US11434492B2, “Ribosome-mediated incorporation of peptides and peptidomimetics” (Arizona Board of Regents on behalf of Arizona State …, priority 2015, dated 2022).

Series [1] has as its system modified ribosomes from clones 010328R4. The experiment in a line: In vitro translation: incorporation into position 49 of DHFR (pETDH49), S-30 from clone 010328R4. The following applies: clone 010328R4 (group 1). Type of series: biochemical, E. coli. The procedure:
(§1) In vitro Protein Translation. Protein translation reactions were carried out in 12-2000 μL of incubation mixture containing 0.4 μL/μL of S-30 system, 100 ng/μL of plasmid, 35 mM Tris acetate, pH 7.4, 190 mM potassium glutamate, 30 mM ammonium acetate, 2 mM DTT, 0.2 mg/mL total E. coli tRNA, 3.5% PEG 6000, 20 μg/mL folinic acid, 20 mM ATP and GTP, 5 mM CTP and UTP, 100 μM amino acids mixture, 0.5 μCi/μL of ^35S-methionine for analytical purposes only and 1 μg/mL rifampicin. In the case of plasmids having a gene with a TAG codon, a suppressor tRNA was added to a concentration of 0.8 μg/μL. Reactions were carried out at 37° C. for 1 h (for 12 μL reaction mixtures) to 1.5 h (for 2000 μL reaction mixtures) and terminated by chilling on ice. Aliquots from in vitro translation mixtures were analyzed by SDS-PAGE followed by quantification of the radioactive bands by phosphorimager analysis.
The other two compounds gave about 1.5-2 times lower suppression efficiency (7-9 and 5-6%).

The subject of series [2] is modified ribosomes (23S rRNA modified). Kind of series: In vitro translation: suppression of UAG codon at position 10 of DHFR mRNA, S-30 systems having modified ribosomes. The series is classed as biochemical, E. coli. The following applies: position 10 of E. coli DHFR, relative to wild-type DHFR = 100. The procedure: Preparation of Aminoacyl-tRNACUAs. The activation of suppressor tRNACUAs was carried out as described previously.^4,5 Briefly, 100-μL reaction mixture of 100 mM Na Hepes, pH 7.5, contained 1.0 mM ATP, 15 mM MgCl2, 100 μg of suppressor tRNACUA-COH, 0.5 A260 unit of N-pentenoyl-protected aminoacyl-pdCpA, 15% DMSO, and 100 units of T4 RNA ligase. The reaction mixture was incubated at 37° C. for 1.5 h and quenched by the addition of 0.1 vol of 3 M NaOAc, pH 5.2. The N-protected aminoacylated tRNA was precipitated with 3 vol of cold ethanol. The efficiency of ligation was estimated by 8% polyarylamide-7 M urea gel electrophoresis (pH 5.0).
The N-pentenoyl-protected aminoacyl-tRNACUAs were deprotected by treatment with 5 mM aqueous […] at 25° C. for 15 min. The solution was centrifuged, and the supernatant was adjusted to 0.3 M NaOAc and treated with 3 vol of cold ethanol to precipitate the aminoacylated tRNA. The tRNA pellet was collected by centrifugation, washed with 70% aq EtOH, air dried and dissolved in 20 μL of RNase free water.
Preparation of S-30 Extracts from Cells Having Modified Ribosomes. Aliquots (5-10 μL) from liquid stocks of E. coli BL-21 (DE-3) cells, harboring plasmids with a wild-type or modified rrnB gene, were placed on LB agar supplemented with 100 µg/mL of ampicillin and grown at 37° C. for 16-18 h. One colony was picked from each agar plate and transferred into 3 mL of LB medium supplemented with 100 μg/mL of ampicillin and 0.5 mM IPTG.
as §1
Incorporation of Dipeptides 2, 3 and 4 into DHFR Using the Modified Ribosomes. Initially, glycylphenylalanine (2) was chosen to screen the selected modified ribosomes for their ability to incorporate a dipeptide into DHFR. It was anticipated that minimal steric hindrance and more flexibility at the N-terminus of the dipeptide (a glycine residue) would enable optimal positioning of the amine for a nucleophilic attack in the PTC of the modified ribosomes. A modified DHFR construct, having a TAG codon in position 10 (pETDH10 plasmid) was used for the incorporation of glycylphenylalanine.
The suppression efficiencies were expressed relative to the wild-type DHFR synthesis. As a negative control, wild-type DHFR synthesis in the presence of nonacylated-tRNACUA was measured for each experiment. The amounts of DHFR produced were quantified with a phosphoimager, which monitored the incorporation of ^35S-methionine into DHFR. Using glycylphenylalanyl-tRNACUA, S-30 preparations having the modified ribosomes from clone groups 1, 2, 3 and 9 produced full length DHFR in ˜9% yields relative to the wild-type DHFR synthesis (Table 3). The modified ribosomes from clone groups 4-8 incorporated glycylphenylalanine (2) with low yields (˜2-4%). For dipeptide 2, best incorporation yields (up to 12%) were obtained by S-30 system having modified ribosomes from clone group 9 (2057AGUGAGA2063 and 2502AUCCGA2507).

Series [3] relates to modified ribosomes from clone 010326R6. The experiment in a line: In vitro translation: suppression of TAG codon at position 66 of GFP (pETGFP66), S-30 from clone 010326R6. Type of series: biochemical, Escherichia coli. The procedure: as §1
The free amino acids both have λex in the range 296-302 nm but the λem of 7 is somewhat red-shifted compared to that of 6. […] As a negative control, wild-type GFP synthesis from the modified mRNA in the presence of nonacylated tRNACUA was measured for each experiment. The amounts of GFP produced were quantified with a phosphoimager, which monitored the incorporation of ^35S-methionine into proteins. […]

The nature of series [4]: Fluorescence emission of dipeptidomimetics and of proteins containing them. Type of series: physicochemical. The following applies: as stated for comparison of 6 and wild-type BFP. An excerpt: Further, we prepared a modified DHFR having dipeptidomimetic 6 at position 10 at larger scale to investigate the fluorescence intensity of 6 in protein. The fluorescence emission spectra of wild-type DHFR and modified DHFR having 6 at position 10 were compared (FIG. 8) at 302 nm excitation wavelength.
Fluorescence Emission of an Artificial BFP Having Dipeptidomimetic 6. We designed fluorescent dipeptidomimetics 6-10 as stable analogues of GFP-chromophore. We anticipated their use to create artificial fluorescent proteins; to verify the same we replaced the chromophore of BFP with dipeptidomimetic 6 in order to prepare an artificial fluorescent protein. The fluorescence emission of 6 is near blue region of visible light spectrum (˜400 nm). Therefore, we compared the fluorescence emission intensity of artificial FP (artificial BFP 1) having 6 at position 66 with wild-type BFP, which has a fluorescence emission ˜450 nm. […] Wild-type and artificial BFP were prepared in a larger scale in a cell free translation system for fluorescence measurements.
A modified BFP construct, having a TAG codon in position 66 and a suppressor tRNACUA activated with 6 were used for the preparation of artificial BFP 1. […] As illustrated from FIG. 11, fluorescence intensity of artificial BFP 1 (emission maximum ˜375 nm) having 6 in position 66 is 20-fold greater than the wild-type BFP at similar protein concentrations. […]

In the case of `C=CCCC(=O)N[C@H]1CCCCN(CC(=O)OC2C(COP(=O)(O)OC3CC(n4ccc(N)nc4=O)OC3COP(=O)(O)O)OC(n3cnc4c(N)ncnc43)C2O)C1=O` (stereo partly drawn) [cyclic peptidomimetic 145, (S)-2-(2-Oxo-3-(pent-4-enamido)azepan-1-yl)acetyl-pdCpA], the “suppression efficiency (full-length DHFR synthesis relative to wild-type)” value in series [1] is recorded as 11-13%.

With `COc1ccc(-c2oc(CN)nc2C(=O)O)cc1` [dipeptidomimetic 6], the “Suppression efficiency in different S-30 systems, having modified ribosomes (%)” value turned out to be 10.2 ± 1.7% in series [2] (clone group 1) and 9.8 ± 2.1% in series [2] (clone group 9). Further, the “suppression yield (full length GFP) relative to wild-type GFP synthesis” value in series [3] is given as about 6.5%. The compound also came in with a fluorescence emission in series [4] of about 400 nm.
